Tests used:
[1] = test system: human colorectal cancer cell line HCT-8 cells; test: Sensor device response to depolarization induced by KCl; type: cell-based
Protocol: (§1) In the present example, the sensor device 200 shown in FIG. 2 was used for detection, wherein the distance between the response electrode of the sensor device and the gate end: 65 μm; and the area of the detection region: 10×60 μm^2. Moreover, a specific aptamer of a human colorectal cancer cell line HCT-8 cell was bonded to the response electrode of the sensor device.
(§2) In the present embodiment, source and drain properties were measured and recorded using an Agilent B1530/B1500A semiconductor parameter analyzer. Operating conditions: VD=2.5 V; Vg=2 V; pulse duration=50 μs. The change in source current before and after a gate bias is applied is defined as the current gain.
In the present embodiment, human colorectal cancer cell line HCT-8 cells were used as the target cells. The HCT-8 cells were cultured in an RPMI-1640 cell culture medium (Invitrogen Co., USA). During a subsequent electrical measurement, the HCT-8 cells were suspended in a Hank balanced salt solution having calcium ions and magnesium ions (hereinafter HBSS w/Ca&Mg), a Hank balanced salt solution without calcium ions and magnesium ions (hereinafter HBSS w/o Ca&Mg), or a Hank balanced salt solution having calcium ions (hereinafter HBSS w/Ca) to prepare a test solution. In the Hank balanced salt solution having calcium ions and magnesium ions (HBSS w/Ca&Mg), the calcium ions were 1.2 mM and the magnesium ions are 0.8 mM. […]

[2] = test system: human colorectal cancer cell line HCT-8 cells; test: Cadmium block of calcium channels (sensor device response); type: cell-based
Protocol: as §1, §2
In the present embodiment, human colorectal cancer cell line HCT-8 cells were used as the target cells. The HCT-8 cells were cultured in an RPMI-1640 cell culture medium (Invitrogen Co., USA). […]
In experimental example 3, HBSS w/Ca and HBSS w/Ca containing different cadmium ion concentrations (5 uM, 10 uM, 20 uM, 50 uM, and 100 uM) are used as reference solutions, and the baselines of the sensor device were calculated using the reference solutions. […]

Row | SMILES | value of the detection current (second current gain minus first current gain, Δ current gain) ([1]; KCl concentration of 5 mM in HBSS w/Ca&Mg, cells have polarized potential) | value of the detection current (second current gain minus first current gain, Δ current gain) ([1]; KCl concentration of 10 mM to 30 mM in HBSS w/Ca&Mg, cells depolarized) | value of the detection current (Δ current gain) ([2]; cadmium concentration further increased from 20 μM to 100 μM in HBSS w/Ca, cells depolarized) | detection current (Δ current gain) ([2]; cadmium ion concentrations of 10 μM and 20 μM in HBSS w/Ca, cells repolarized)
1 | [Cl-].[K+] [KCl] | positive | negative |  | 
2 | [Cd+2] [cadmium ion] |  |  | negative | positive
